The subject of data set [1] is MCF7. Kind of data set: Antiproliferative activity against human MCF7 cells assessed as cell growth inhibition. The data set is classed as functional, cell-based.
The target in data set [2] is T1, Estrogen receptor (Homo sapiens, UniProt P03372).
T1 sequence (P03372 whole entry): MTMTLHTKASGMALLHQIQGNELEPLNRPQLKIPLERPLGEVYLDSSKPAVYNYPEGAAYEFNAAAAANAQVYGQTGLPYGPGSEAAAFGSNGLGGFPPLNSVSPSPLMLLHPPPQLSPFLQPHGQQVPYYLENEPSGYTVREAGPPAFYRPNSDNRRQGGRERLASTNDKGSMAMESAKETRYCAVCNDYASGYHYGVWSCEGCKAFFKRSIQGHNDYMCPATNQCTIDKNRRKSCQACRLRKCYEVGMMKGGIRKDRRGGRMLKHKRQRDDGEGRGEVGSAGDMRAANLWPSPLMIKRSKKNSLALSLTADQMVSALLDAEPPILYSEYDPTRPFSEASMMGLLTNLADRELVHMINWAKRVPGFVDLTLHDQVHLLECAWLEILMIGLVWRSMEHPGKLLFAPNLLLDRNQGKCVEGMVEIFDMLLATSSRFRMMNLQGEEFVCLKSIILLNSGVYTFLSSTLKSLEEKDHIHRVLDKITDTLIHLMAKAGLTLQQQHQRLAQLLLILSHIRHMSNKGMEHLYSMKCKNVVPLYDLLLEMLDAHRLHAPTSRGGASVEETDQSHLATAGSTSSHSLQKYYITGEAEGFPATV
Description: Binding affinity to estrogen receptor (unknown origin).

Data set [3] addresses T1, Estrogen receptor. Description: Induction of estrogen receptor degradation in human MCF7 cells. It is filed as cell-based.
The nature of data set [4]: AUC (0 to last) in CD-1 mouse at 2.5 mg/kg, po. Also noted: time 0 - last, route oral, dose 2.5 mg/kg. It is filed as ADME, organism-based. As to conditions: in vivo.
Data set [5] can be described thus: Oral bioavailability in CD-1 mouse. The data set is classed as ADME, organism-based. The settings on record: in vivo.
The nature of data set [6]: Volume of distribution in CD-1 mouse. The data set is classed as ADME. As to conditions: in vivo.
Data set [7] concerns MCF7. Kind of data set: Antitumor activity against human MCF7 cells expressing ER xenografted in BALB/c mouse assessed as tumor growth suppression at 20 mg/kg, po qd administered for 21 days. The settings on record: time 21.0 day. It is filed as functional, organism-based. Background: In xenograft studies the graft and the host belong to different species.
Data set [8] is described as follows: Clearance in CD-1 mouse. It is filed as ADME. The settings on record: in vivo.
Data set [9] concerns MCF7. Description: Antitumor activity against human MCF7 cells expressing ER xenografted in BALB/c mouse assessed as tumor growth inhibition at 20 mg/kg, po qd administered for 21 days and measured on day 19 relative to control. The settings on record: 456 h, time 19 day, read-out: TGI. It is filed as functional.
For data set [10], the target named is Voltage-gated inwardly rectifying potassium channel KCNH2 (Homo sapiens, UniProt Q12809). Description: Inhibition of human ERG by automatic Q-patch assay.

The text below walks through data of ChEMBL document CHEMBL4699562, “Design, syntheses and evaluations of novel indole derivatives as orally selective estrogen receptor degraders (SERD)” (Bioorg Med Chem Lett, 2020).

Structures are written as SMILES. Active and inactive are the calls of the source. The rule behind the calls is not given here. A value given as a limit tells only on which side of the number the result lay.

Voltage-gated inwardly rectifying potassium channel KCNH2, sequence (Q12809 whole entry): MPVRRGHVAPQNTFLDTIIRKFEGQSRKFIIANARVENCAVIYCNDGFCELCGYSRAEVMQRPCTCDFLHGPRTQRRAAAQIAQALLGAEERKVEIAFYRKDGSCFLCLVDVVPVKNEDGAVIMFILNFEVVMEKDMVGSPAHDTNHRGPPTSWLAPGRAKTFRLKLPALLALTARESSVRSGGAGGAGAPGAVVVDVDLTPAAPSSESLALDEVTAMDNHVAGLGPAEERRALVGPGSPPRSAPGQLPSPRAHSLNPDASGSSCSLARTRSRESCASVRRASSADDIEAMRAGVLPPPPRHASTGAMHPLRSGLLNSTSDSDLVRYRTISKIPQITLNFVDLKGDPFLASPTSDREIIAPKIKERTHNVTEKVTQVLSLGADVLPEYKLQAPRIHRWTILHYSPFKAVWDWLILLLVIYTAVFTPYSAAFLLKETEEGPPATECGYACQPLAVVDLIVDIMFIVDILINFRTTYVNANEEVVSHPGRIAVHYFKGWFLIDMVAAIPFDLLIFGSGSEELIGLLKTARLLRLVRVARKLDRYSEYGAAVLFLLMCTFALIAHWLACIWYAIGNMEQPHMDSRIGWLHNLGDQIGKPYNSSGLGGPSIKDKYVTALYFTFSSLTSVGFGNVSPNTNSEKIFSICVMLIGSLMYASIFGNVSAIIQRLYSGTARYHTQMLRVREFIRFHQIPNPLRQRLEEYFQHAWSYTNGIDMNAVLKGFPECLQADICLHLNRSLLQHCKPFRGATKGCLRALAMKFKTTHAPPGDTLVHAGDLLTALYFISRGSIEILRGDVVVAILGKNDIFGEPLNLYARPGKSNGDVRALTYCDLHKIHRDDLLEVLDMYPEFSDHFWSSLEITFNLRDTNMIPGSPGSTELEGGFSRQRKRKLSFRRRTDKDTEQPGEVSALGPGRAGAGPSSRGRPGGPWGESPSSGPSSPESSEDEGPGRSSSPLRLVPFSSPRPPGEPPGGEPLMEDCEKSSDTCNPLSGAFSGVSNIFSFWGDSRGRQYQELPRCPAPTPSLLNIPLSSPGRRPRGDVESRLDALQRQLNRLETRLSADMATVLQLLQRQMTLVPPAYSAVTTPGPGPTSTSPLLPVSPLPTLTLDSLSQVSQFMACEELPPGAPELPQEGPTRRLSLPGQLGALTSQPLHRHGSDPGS

For orientation: IC50 means the concentration needed to halve the response being measured. For `CC/C(=C(/c1ccc(/C=C/C(=O)O)cc1)c1cc2ccccc2[nH]1)c1cccc(F)c1C#N`, the IC50 in the data set with MCF7 [1] is 0.04 µM; at Estrogen receptor [2], 0.00017 µM; against Estrogen receptor [3], 0.049 µM.

`CC/C(=C(/c1ccc(/C=C/C(=O)O)cc1)c1cc2ccccc2[nH]1)c1ccc(Cl)c(C(F)(F)F)c1`: the IC50 came out at 2.2 µM in the data set on MCF7 [1] and 2.45 µM against Estrogen receptor [3].

Consider `CC/C(=C(/c1ccc(/C=C/C(=O)O)cc1)c1cc2ccccc2[nH]1)c1ccc(Cl)c(C)c1`, for which the IC50 with MCF7 [1] was found to be 0.84 µM; against Estrogen receptor [3], 1.39 µM.

Take `CC/C(=C(/c1ccc(/C=C/C(=O)O)cc1)c1cc2ccccc2[nH]1)c1cc(Cl)ccc1Cl`: the IC50 stood at 0.071 µM in the data set with MCF7 [1], 0.0014 µM at Estrogen receptor [2] and 0.025 µM against Estrogen receptor [3].

On to `CC/C(=C(/c1ccc(/C=C/C(=O)O)cc1)c1cc2ccccc2[nH]1)c1ccccc1`, for which the IC50 in the data set with MCF7 [1] was 0.108 µM; on Estrogen receptor [2] it was 0.00028 µM; against Estrogen receptor [3], 0.0666 µM.

For `CC/C(=C(/c1ccc(/C=C/C(=O)O)cc1)c1cc2ccccc2[nH]1)c1ccccc1C`, the IC50 in the data set with MCF7 [1] is 0.033 µM; at Estrogen receptor [2], 0.00017 µM; against Estrogen receptor [3] it was 0.009 µM.

Regarding `CC/C(=C(/c1ccc(/C=C/C(=O)O)cc1)c1cc2ccccc2[nH]1)c1ccc(Cl)cc1Cl`, the IC50 was 0.011 µM in the data set on MCF7 [1], 0.00152 µM on Estrogen receptor [2] and 0.009 µM on Estrogen receptor [3].

As to `CC/C(=C(/c1ccc(/C=C/C(=O)O)cc1)c1cc2ccccc2[nH]1)c1ccc(Cl)cc1`, the IC50 came out at 0.343 µM with MCF7 [1], 0.00174 µM at Estrogen receptor [2] and 0.271 µM on Estrogen receptor [3].

Consider `C[C@@H]1Cc2c([nH]c3ccccc23)[C@@H](c2c(F)cc(/C=C/C(=O)O)cc2F)N1CC(C)(C)F` [AZD-9496], for which, in the data set on MCF7 [1], the IC50 worked out at 0.00049 µM.

A word on the AUC(0-t): it is exposure summed from dosing to a finite time, without extrapolation to infinity. The bioavailability is the share of a dose that reaches the circulation, judged against a reference dose that is usually intravenous. High values mean much systemic uptake, low ones little systemic uptake. For orientation: Vd means the apparent volume that relates the amount in the body to the concentration in plasma or blood. Read a high Vd as wide distribution into tissue. As a reminder, the clearance is the volume of plasma or blood freed of the substance per unit of time. Regarding `CC/C(=C(/c1ccc(/C=C/C(=O)O)cc1)c1cc2ccccc2[nH]1)c1ccc(Cl)cc1C(F)(F)F`, the AUC(0-t) in [4] stood at 6.36 µM·h. Further, the bioavailability in [5] was 52.4%. Also, the IC50 in the data set on MCF7 [1] is 0.004 µM; on Estrogen receptor [2], 0.00076 µM; at Estrogen receptor [3], 0.002 µM; in [10], above 30 µM. The compound further showed a Vd in data set [6] of 1.6 L/kg. Moreover, the inhibition result with MCF7 [7] is “Active”. For the same compound, in data set [8], the clearance was 6.86 mL/min/kg. Also, the inhibition in vivo at 20 mg/kg with MCF7 [9] was 117%.

Compound `CC/C(=C(/c1ccc(/C=C/C(=O)O)cc1)c1cc2ccccc2[nH]1)c1ccccc1C(F)(F)F` yielded an AUC(0-t) in data set [4] of 4.21 µM·h. The compound further returned a bioavailability in data set [5] of 25.7%. Moreover, the IC50 is 0.008 µM in the data set on MCF7 [1], 0.00087 µM on Estrogen receptor [2] and 0.004 µM at Estrogen receptor [3]. The distribution volume (Vd) in data set [6] was 1.12 L/kg. Moreover, the inhibition entry with MCF7 [7] was “Active”. The compound also displayed a clearance in [8] of 5.54 mL/min/kg. In addition, the inhibition in vivo at 20 mg/kg with MCF7 [9] came out at 112%. In addition, the “inhibition (INH)” value in data set [10] (human) is “Active”.

Regarding `CC/C(=C(/c1ccc(/C=C/C(=O)O)cc1)c1cc2ccccc2[nH]1)c1ccc(F)cc1Cl`, the IC50 in the data set on MCF7 [1] is 0.039 µM; at Estrogen receptor [2], 0.0016 µM; against Estrogen receptor [3] it was 0.021 µM.

For the compound `CC/C(=C(/c1ccc(/C=C/C(=O)O)cc1)c1cc2ccccc2[nH]1)c1ccccc1C#N`, the concentration for half-maximal inhibition (IC50) came out at 0.009 µM with MCF7 [1], 0.00024 µM on Estrogen receptor [2] and 0.009 µM on Estrogen receptor [3].

Take `CC/C(=C(/c1ccc(/C=C/C(=O)O)cc1)c1cc2ccccc2[nH]1)c1cccc(C)c1`: the IC50 in the data set on MCF7 [1] amounted to 0.14 µM; at Estrogen receptor [2] it was 0.00146 µM; at Estrogen receptor [3], 0.069 µM.

With `CC/C(=C(/c1ccc(/C=C/C(=O)O)cc1)c1cc2ccccc2[nH]1)c1cccc(C(F)(F)F)c1`, the IC50 in the data set on MCF7 [1] is 0.325 µM; at Estrogen receptor [2], 0.00175 µM; at Estrogen receptor [3], 0.131 µM.

On to `CC/C(=C(/c1ccc(/C=C/C(=O)O)cc1)c1cc2ccccc2[nH]1)c1ccc(C(F)(F)F)cc1Cl`, for which the IC50 with MCF7 [1] turned out to be 0.027 µM; on Estrogen receptor [2], 0.00098 µM; against Estrogen receptor [3], 0.006 µM.

Regarding `CC/C(=C(/c1ccc(/C=C/C(=O)O)cc1)c1cc2ccccc2[nH]1)c1cccc(Cl)c1Cl`, the IC50 with MCF7 [1] is 0.898 µM; on Estrogen receptor [2], 0.00318 µM; on Estrogen receptor [3], 0.495 µM.

With `CC/C(=C(/c1ccc(/C=C/C(=O)O)cc1)c1cc2ccccc2[nH]1)c1ccc(OC)cc1`, the results for the IC50 in the data set with MCF7 [1], on Estrogen receptor [2] and on Estrogen receptor [3] were 0.061 µM, 0.00022 µM and 0.03 µM, respectively.

In the case of `CC/C(=C(/c1ccc(/C=C/C(=O)O)cc1)c1cc2ccccc2[nH]1)c1ccc(Cl)cc1C#N`, the IC50 in the data set on MCF7 [1] is 0.014 µM; at Estrogen receptor [2], 0.00016 µM; against Estrogen receptor [3] it was 0.018 µM.

On to `CC/C(=C(/c1ccc(/C=C/C(=O)O)cc1)c1cc2ccccc2[nH]1)c1ccc(C#N)cc1Cl`, for which the IC50 in the data set with MCF7 [1] turned out to be 0.049 µM; on Estrogen receptor [2], 0.00017 µM; against Estrogen receptor [3], 0.031 µM.

`CC/C(=C(/c1ccc(/C=C/C(=O)O)cc1)c1cc2ccccc2[nH]1)c1ccc(C(F)(F)F)cc1`: the IC50 in the data set on MCF7 [1] was determined as 0.139 µM; on Estrogen receptor [3] it was 0.163 µM.

Consider `CC/C(=C(/c1ccc(/C=C/C(=O)O)cc1)c1cc2ccccc2[nH]1)c1ccccc1Cl`, for which the IC50 in the data set with MCF7 [1] is 0.042 µM; on Estrogen receptor [2], 0.00044 µM; at Estrogen receptor [3], 0.029 µM.

Regarding `CC/C(=C(/c1ccc(/C=C/C(=O)O)cc1)c1cc2ccccc2[nH]1)c1ccccc1OC(F)(F)F`, the IC50 in the data set with MCF7 [1] came to 0.206 µM; at Estrogen receptor [2] it was 0.00241 µM; at Estrogen receptor [3], 0.093 µM.

Consider `CC/C(=C(/c1ccc(/C=C/C(=O)O)cc1)c1cc2ccccc2[nH]1)c1c(C)cccc1Cl`, for which the IC50 amounted to 0.03 µM in the data set on MCF7 [1] and 0.042 µM against Estrogen receptor [3].

Consider `CC/C(=C(/c1ccc(/C=C/C(=O)O)cc1)c1cc2ccccc2[nH]1)c1ccc(C#N)cc1`, for which the IC50 in the data set with MCF7 [1] was determined as 0.278 µM; on Estrogen receptor [3], 0.723 µM.

Regarding `CC/C(=C(/c1ccc(/C=C/C(=O)O)cc1)c1cc2ccccc2[nH]1)c1cccc(OC(F)(F)F)c1`, the half-inhibitory concentration (IC50) in the data set with MCF7 [1] was 0.282 µM; at Estrogen receptor [2], 0.00471 µM; on Estrogen receptor [3] it was 0.068 µM.
